The text below walks through data of PubChem BioAssay (NCI).

Where “and” joins values, the source holds several entries; their conditions need not be identical. Equal entries are not always repeated.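 48-hour exposure; five concentrations; linearly interpolated endpoints. At the GI50, growth is halved. At the TGI there is no net growth.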 Some results are limits rather than exact numbers.

Among the test systems are A498 renal; HCT-15 colon; HS 578T breast; IGROV1 ovarian; MDA-MB-231 breast; RPMI-8226 leukemia; SF-295 CNS; SK-MEL-2 melanoma.
Common to all, as to test: NCI tumour cell line growth inhibition, 48 h

`O=C(CCCCCCSc1nc(-c2ccc(Cl)cc2)cc(-c2ccc(Cl)cc2)n1)NO`: the GI50 with A498 renal is 1030 nM; in the test with HCT-15 colon, 1760 nM; in the test on HS 578T breast, 3230 nM; with IGROV1 ovarian, 1700 nM; with MDA-MB-231 breast, 2150 nM; with RPMI-8226 leukemia it was 1700 nM. Besides, the GI50 in the test with SF-295 CNS was 2340 nM; with SK-MEL-2 melanoma it was 4020 nM. Moreover, the TGI with A498 renal was 4050 nM; in the test with HCT-15 colon it was more than 50000 nM; in the test with HS 578T breast it was more than 50000 nM; with IGROV1 ovarian it was 12800 nM; with MDA-MB-231 breast, 13300 nM; with RPMI-8226 leukemia, more than 50000 nM. The TGI is 9840 nM in the test on SF-295 CNS and 18400 nM in the test on SK-MEL-2 melanoma.
With `CC1=C[S+](c2ccccc2)c2cccc3cc4ccccc4c1c23` (stereo not drawn), the GI50 is 1080 nM in the test with A498 renal; 378 nM in the test on HCT-15 colon; 385 nM with HS 578T breast; 467 nM in the test on IGROV1 ovarian; 1690 nM in the test on MDA-MB-231 breast; 37.9 nM in the test on RPMI-8226 leukemia. Further, the GI50 with SF-295 CNS is 111 nM; in the test with SK-MEL-2 melanoma it was 1520 nM. The TGI was determined as 5390 nM with A498 renal; 8440 nM in the test on HCT-15 colon; 14800 nM in the test with HS 578T breast; 3110 nM with IGROV1 ovarian; 4480 nM with MDA-MB-231 breast; 862 nM with RPMI-8226 leukemia. The figures for the TGI with SF-295 CNS and with SK-MEL-2 melanoma were 584 nM and 8550 nM, respectively.
As for `COc1cnc2c(c1)C(=O)c1c-2n(CCCN2CCCC2)c(=O)c2cc(F)ccc12`, the GI50 was 344 nM with A498 renal; 283 nM in the test with HCT-15 colon; 1690 nM in the test on HS 578T breast; 363 nM in the test on IGROV1 ovarian; 926 nM in the test on MDA-MB-231 breast; 123 nM in the test on RPMI-8226 leukemia. For the same compound, the GI50 in the test on SF-295 CNS was 202 nM; in the test on SK-MEL-2 melanoma, 1390 nM. Besides, the TGI worked out at 1650 nM in the test with A498 renal; 1980 nM with HCT-15 colon; 13500 nM with HS 578T breast; 3340 nM in the test on IGROV1 ovarian; 2960 nM with MDA-MB-231 breast; 643 nM in the test with RPMI-8226 leukemia. Moreover, the TGI in the test on SF-295 CNS is 755 nM; in the test with SK-MEL-2 melanoma it was 10400 nM.
As for `COc1ccccc1S(=O)(=O)Nc1ccc2c(c1)CN(C)C(=O)N2`, the GI50 in the test on A498 renal was 1500 nM and 2250 nM; in the test on HCT-15 colon, 3790 nM and 3320 nM; in the test on HS 578T breast, 2530 nM and 2230 nM; in the test with IGROV1 ovarian, 6420 nM and 5700 nM; with MDA-MB-231 breast it was 4280 nM and 7340 nM; in the test on RPMI-8226 leukemia, 2160 nM and 1890 nM. For the same compound, the GI50 was 6480 nM and 9420 nM in the test with SF-295 CNS; 6480 nM and 29500 nM in the test with SK-MEL-2 melanoma. The TGI with A498 renal is 22600 nM and 10900 nM; in the test on HCT-15 colon, more than 100000 nM; in the test on HS 578T breast it was more than 100000 nM; with IGROV1 ovarian, more than 100000 nM; with MDA-MB-231 breast, more than 100000 nM; in the test with RPMI-8226 leukemia it was more than 100000 nM. For the same compound, the TGI with SF-295 CNS and in the test with SK-MEL-2 melanoma was more than 100000 nM in each case.
On to `CCOC(=O)Nc1ccc(-c2nc(-c3cccc(OC)c3)c(-c3ccnc(Br)c3)[nH]2)cc1`, for which the GI50 is 1940 nM in the test on A498 renal; 1680 nM with HCT-15 colon; 1680 nM in the test with HS 578T breast; 2690 nM with IGROV1 ovarian; 3270 nM with MDA-MB-231 breast; 794 nM with RPMI-8226 leukemia. Moreover, the GI50 is 416 nM in the test on SF-295 CNS and 2580 nM with SK-MEL-2 melanoma. In addition, the TGI is 7060 nM in the test on A498 renal; 5450 nM in the test with HCT-15 colon; 6150 nM in the test on HS 578T breast; 9030 nM with IGROV1 ovarian; more than 100000 nM with MDA-MB-231 breast; 3490 nM in the test on RPMI-8226 leukemia. The TGI in the test with SF-295 CNS amounted to 2930 nM; with SK-MEL-2 melanoma it was 6690 nM.
For the compound `COc1cc2nc3cc([N+](=O)[O-])ccc3c(NCCCNCC(C)(C)O)c2cc1OC`, the GI50 in the test with A498 renal is 216 nM; in the test with HCT-15 colon, 1300 nM; in the test with HS 578T breast it was 511 nM; in the test on IGROV1 ovarian it was 350 nM; in the test with MDA-MB-231 breast, 222 nM; with RPMI-8226 leukemia it was 565 nM. For the same compound, the GI50 with SF-295 CNS is 501 nM; with SK-MEL-2 melanoma, 234 nM. Moreover, the TGI in the test with A498 renal was 1330 nM; in the test on HCT-15 colon it was 8290 nM; in the test with HS 578T breast, 5390 nM; with IGROV1 ovarian, 1300 nM; in the test with MDA-MB-231 breast, 900 nM; with RPMI-8226 leukemia, 4010 nM. The TGI in the test with SF-295 CNS is 2430 nM; with SK-MEL-2 melanoma, 518 nM.
With `N[C@@H]1CCCN(c2c(/C=C3\SC(=O)NC3=O)cccc2-c2ccccc2)C1`, the GI50 in the test with A498 renal was 1500 nM; in the test on HCT-15 colon, 13700 nM; in the test with HS 578T breast, 14000 nM; with IGROV1 ovarian, 17200 nM; in the test with MDA-MB-231 breast, 7770 nM; with RPMI-8226 leukemia, 2230 nM. In addition, the GI50 with SF-295 CNS is 3570 nM; with SK-MEL-2 melanoma, 15200 nM. Besides, the TGI with A498 renal came out at 18800 nM; with HCT-15 colon, 29500 nM; with HS 578T breast it was 64000 nM; with IGROV1 ovarian, 35100 nM; with MDA-MB-231 breast, 23100 nM; in the test with RPMI-8226 leukemia, 21600 nM. The figures for the TGI in the test on SF-295 CNS and in the test on SK-MEL-2 melanoma were 15900 nM and 30300 nM, respectively.
On to `C#Cc1cccc(Nc2nc3ccc([N+](=O)[O-])cc3nc2Nc2cccc(C#C)c2)c1`, for which the GI50 was 227 nM in the test with A498 renal; 197 nM in the test with HCT-15 colon; 322 nM with HS 578T breast; 354 nM in the test on IGROV1 ovarian; 281 nM in the test on MDA-MB-231 breast; 218 nM with RPMI-8226 leukemia. Also, the results for the GI50 with SF-295 CNS and in the test on SK-MEL-2 melanoma were 172 nM and 260 nM, respectively. For the same compound, the TGI in the test with A498 renal came to 783 nM; with HCT-15 colon, 716 nM; in the test with HS 578T breast, 1720 nM; in the test on IGROV1 ovarian, 1300 nM; in the test with MDA-MB-231 breast, 807 nM; with RPMI-8226 leukemia it was 998 nM. The TGI with SF-295 CNS was determined as 416 nM; with SK-MEL-2 melanoma it was 742 nM.
